Measured values from patent US20100063047A1 (KALYPSYS, INC., priority 2008, published 2010).

molecular target: T1, human H1 (Homo sapiens, UniProt P35367); assay: In vitro histamine H1 receptor cell-based aequorin bioluminescence antagonist assay; settings: CHO-K1 cells expressing human H1 and aequorin; histamine at EC80; read-out: H1 Antagonist EC50
T1 construct: host or cells: CHO-K1, also expressing mitochondrion-targeted aequorin
Protocol: In vitro Histamine Receptor Cell-Based Assays
The cell-based assays utilize an aequorin dependent bioluminescence signal. Doubly-transfected, stable CHO—K1 cell lines expressing human H1 or H4, mitochondrion-targeted aequorin, and (H4 only) human G protein Gα16 are obtained from Perkin-Elmer. Cells are maintained in F12 (Ham's) growth medium, containing 10% (vol./vol.) fetal bovine serum, penicillin (100 IU/mL), streptomycin (0.1 mg/mL), zeocin (0.25 mg/mL) and geneticin (0.40 mg/mL). Cell media components are from Invitrogen, Inc. One day prior to assay, the growth medium is replaced with the same, excluding zeocin and geneticin.
For assay preparation, growth medium is aspirated, and cells are rinsed with calcium-free, magnesium-free phosphate-buffered saline, followed by two to three minute incubation in Versene (Invitrogen, Inc.) at 37° C. Assay medium (DMEM:F12 [50:50], phenol-red free, containing 1 mg/mL protease-free bovine serum albumin) is added to collect the released cells, which are then centrifuged. The cell pellet is re-suspended in assay medium, centrifuged once more, and re-suspended in assay medium to a final density of 5×10^6 cells/mL. Coelenterazine-h dye (500 μM in ethanol) is added to a final concentration of 5 μM, and mixed immediately. The conical tube containing the cells is then wrapped with foil to protect the light-sensitive dye. The cells are incubated for four hours further at room temperature (approximately 21° C.) with end-over-end rotation to keep them in suspension.
Just before assay, the dye-loaded cells are diluted to 0.75×10^6 cells/mL (H1 receptor) or 1.5×10^6 cells/mL (H4 receptor) with additional assay medium. Cells are dispensed to 1536 well micro-titer plates at 3 μL/well. To assay receptor antagonism, 60 nl of 100× concentration test compounds in 100% dimethyl sulfoxide (DMSO) are dispensed to the wells, one compound per well, by passive pin transfer, and the plates are incubated for 15 minutes at room temperature. […] The pipette dispenses 3 μL/well of agonist (histamine, at twice the final concentration, where final concentration is a previously determined EC80) in assay medium, with concurrent bioluminescence detection. Agonist activity of test compounds is excluded by separate assays that measure response to test compounds immediately, without added histamine agonist.
CCD image capture on the Lumilux includes a 5 second baseline read prior to agonist addition, and generally a 40 second read per plate after agonist addition. A decrease in bioluminescence signal (measured either as area-under-the-curve, or maximum signal amplitude minus minimum signal amplitude) correlates with receptor antagonism in a dose dependent manner. The negative control is DMSO lacking any test compound. For antagonist assays, the positive controls are diphenhydramine (2-Diphenylmethoxy-N,N-dimethylethylamine, 10 μM final concentration, H1 receptor) or JNJ7777120 (1-[(5-Chloro-1H-indol-2-yl)carbonyl]-4-methyl-piperazine, 10 μM final concentration, H4 receptor). Efficacy is measured as a percentage of positive control activity.

T1 sequence (P35367 whole entry): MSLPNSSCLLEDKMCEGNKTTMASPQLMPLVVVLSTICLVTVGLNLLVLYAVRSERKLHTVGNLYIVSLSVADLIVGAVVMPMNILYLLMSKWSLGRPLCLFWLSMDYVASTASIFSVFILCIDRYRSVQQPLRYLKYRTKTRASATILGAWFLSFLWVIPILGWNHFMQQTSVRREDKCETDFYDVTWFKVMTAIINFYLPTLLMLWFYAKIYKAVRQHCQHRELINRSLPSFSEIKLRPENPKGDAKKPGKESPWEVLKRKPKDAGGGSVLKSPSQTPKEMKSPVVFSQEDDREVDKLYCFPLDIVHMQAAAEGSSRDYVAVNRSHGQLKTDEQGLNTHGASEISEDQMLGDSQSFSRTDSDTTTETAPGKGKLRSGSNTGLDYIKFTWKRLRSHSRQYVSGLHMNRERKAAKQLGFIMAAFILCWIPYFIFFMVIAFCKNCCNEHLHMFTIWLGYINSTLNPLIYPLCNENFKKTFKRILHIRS

EC50, > 10 µM:
Cc1csc2ncnc(N3CCN(C(=O)OC(C)(C)C)CC3)c12 [Example 250, tert-butyl 4-{5-methylthieno[2,3-d]pyrimidin-4-yl}piperazine-1-carboxylate]
Cc1ccc(N2CCN(c3ncnc4scc(C)c34)CC2)c(C)c1 [Example 258, 1-(2,4-dimethylphenyl)-4-{5-methylthieno[2,3-d]pyrimidin-4-yl}piperazine]
Cc1csc2ncnc(NCCCNC(=O)OC(C)(C)C)c12 [Example 163, tert-butyl N-[3-({5-methylthieno[2,3-d]pyrimidin-4-yl}amino)propyl]carbamate]
Cc1csc2ncnc(NCc3ccc(F)cc3F)c12 [Example 133, N-[(2,4-difluorophenyl)methyl]-5-methylthieno[2,3-d]pyrimidin-4-amine]
Cc1ccc([C@H](C)Nc2ncnc3scc(C)c23)cc1 [Example 114, 5-methyl-N-[(1S)-1-(4-methylphenyl)ethyl]thieno[2,3-d]pyrimidin-4-amine]
Cc1csc2ncnc(N3CCC(NC(=O)OC(C)(C)C)C3)c12 (stereo not shown) [Example 251, tert-butyl N-(1-{5-methylthieno[2,3-d]pyrimidin-4-yl}pyrrolidin-3-yl)carbamate]
Cc1csc2ncnc(NCCc3ccccc3F)c12 [Example 127, N-[2-(2-fluorophenyl)ethyl]-5-methylthieno[2,3-d]pyrimidin-4-amine]
Cc1csc2ncnc(OCCc3ccc(Cl)cc3)c12 [Example 26, 4-(4-chlorophenethoxy)-5-methylthieno[2,3-d]pyrimidine]
Cc1csc2ncnc(NCc3ccc(F)c(Cl)c3)c12 [Example 152, N-[(3-chloro-4-fluorophenyl)methyl]-5-methylthieno[2,3-d]pyrimidin-4-amine]
Cc1csc2ncnc(N[C@@H](C)c3ccccc3)c12 [Example 96, 5-methyl-N-[(1S)-1-phenylethyl]thieno[2,3-d]pyrimidin-4-amine]
Cc1csc2ncnc(NC3CCCCC3)c12 [Example 76, N-cyclohexyl-5-methylthieno[2,3-d]pyrimidin-4-amine]
Cc1ccc(CNc2ncnc3scc(C)c23)cc1C [Example 118, N-[(3,4-dimethylphenyl)methyl]-5-methylthieno[2,3-d]pyrimidin-4-amine]
COc1ccc(CNc2ncnc3scc(C)c23)cc1OC [Example 160, N-[(3,4-dimethoxyphenyl)methyl]-5-methylthieno[2,3-d]pyrimidin-4-amine]
Cc1csc2ncnc(NCCc3ccc(O)cc3)c12 [Example 121, 4-[2-({5-methylthieno[2,3-d]pyrimidin-4-yl}amino)ethyl]phenol]
Cc1csc2ncnc(CCCc3ccc(Cl)cc3)c12 [Example 23, 4-(3-(4-chlorophenyl)propyl)-5-methylthieno[2,3-d]pyrimidine]
Cc1csc2ncnc(NCc3ccc(F)cc3)c12 [Example 103, N-[(4-fluorophenyl)methyl]-5-methylthieno[2,3-d]pyrimidin-4-amine]
COC(=O)C1CCN(c2ncnc3scc(C)c23)CC1 [Example 224, methyl 1-{5-methylthieno[2,3-d]pyrimidin-4-yl}piperidine-4-carboxylate]
COc1ccc(CNc2ncnc3scc(C)c23)cc1 [Example 124, N-[(4-methoxyphenyl)methyl]-5-methylthieno[2,3-d]pyrimidin-4-amine]
Cc1csc2ncnc(NCc3ccc(C(C)(C)C)cc3)c12 [Example 156, N-[(4-tert-butylphenyl)methyl]-5-methylthieno[2,3-d]pyrimidin-4-amine]
Cc1sc2ncnc(N3CCN(S(=O)(=O)c4ccc(C(C)(C)C)cc4)CC3)c2c1C [Example 310, 4-(4-(4-tert-butylphenylsulfonyl)piperazin-1-yl)-5,6-dimethylthieno[2,3-d]pyrimidine]
Cc1csc2ncnc(N3CCCCC3CCO)c12 (stereo not shown) [Example 215, 2-(1-{5-methylthieno[2,3-d]pyrimidin-4-yl}piperidin-2-yl)ethan-1-ol]
Clc1ccc(CCNc2ncnc3sc4c(c23)CCCC4)c(Cl)c1 [Example 313]
COc1ccccc1CNc1ncnc2scc(C)c12 [Example 123, N-[(2-methoxyphenyl)methyl]-5-methylthieno[2,3-d]pyrimidin-4-amine]
Cc1csc2ncnc(NC(C)CCCC(C)C)c12 (stereo not shown) [Example 108, 5-methyl-N-(6-methylheptan-2-yl)thieno[2,3-d]pyrimidin-4-amine]
Cc1csc2ncnc(N3CCN(c4ccc(Cl)cc4)CC3)c12 [Example 6, 4-(4-(4-chlorophenyl)piperazin-1-yl)-5-methylthieno[2,3-d]pyrimidine]
CC(C)(CNc1ncnc2sccc12)N1CCOCC1 [Example 308, N-(2-methyl-2-morpholinopropyl)thieno[2,3-d]pyrimidin-4-amine]
Fc1ccccc1CCNc1ncnc2sc3c(c12)CCCC3 [Example 42, N-[2-(2-fluorophenyl)ethyl]-8-thia-4,6-diazatricyclo[7.4.0.0^{2,7}]trideca-1(9),2(7),3,5-tetraen-3-amine]
Cc1cccc(CCNc2ncnc3scc(C)c23)c1 [Example 20]
Cc1csc2ncnc(NCCC(C)(C)C)c12 [Example 78, N-(3,3-dimethylbutyl)-5-methylthieno[2,3-d]pyrimidin-4-amine]
Cc1csc2ncnc(N[C@H](C)c3ccccc3)c12 [Example 97, 5-methyl-N-[(1R)-1-phenylethyl]thieno[2,3-d]pyrimidin-4-amine]
Cc1csc2ncnc(NC(C)CCc3ccccc3)c12 (stereo not shown) [Example 139, 5-methyl-N-(4-phenylbutan-2-yl)thieno[2,3-d]pyrimidin-4-amine]
CCN(Cc1ccccc1)c1ncnc2scc(C)c12 [Example 217, N-benzyl-N-ethyl-5-methylthieno[2,3-d]pyrimidin-4-amine]
Cc1csc2ncnc(NCCc3cccc(F)c3)c12 [Example 18]
Cc1csc2ncnc(N3CCN(c4ccc(C(F)(F)F)cc4)CC3)c12 [Example 287, 1-{5-methylthieno[2,3-d]pyrimidin-4-yl}-4-[4-(trifluoromethyl)phenyl]piperazine]
Cc1csc2ncnc(N3CCC(Cc4ccccc4)CC3)c12 [Example 240, 4-benzyl-1-{5-methylthieno[2,3-d]pyrimidin-4-yl}piperidine]
CC(=O)c1c(C)[nH]c(C(=O)CSc2ncnc3sc(C)c(C)c23)c1C [Example 304, 1-(4-acetyl-3,5-dimethyl-1H-pyrrol-2-yl)-2-(5,6-dimethylthieno[2,3-d]pyrimidin-4-ylthio)ethanone]
Cc1csc2ncnc(NCc3ccc(C(C)C)cc3)c12 [Example 140, 5-methyl-N-{[4-(propan-2-yl)phenyl]methyl}thieno[2,3-d]pyrimidin-4-amine]
Cc1csc2ncnc(NCCc3ccc(S(N)(=O)=O)cc3)c12 [Example 173, 4-[2-({5-methylthieno[2,3-d]pyrimidin-4-yl}amino)ethyl]benzene-1-sulfonamide]
Cc1csc2ncnc(NCc3cccc(F)c3)c12 [Example 102, N-[(3-fluorophenyl)methyl]-5-methylthieno[2,3-d]pyrimidin-4-amine]
Cc1csc2ncnc(NCc3ccccc3Cl)c12 [Example 130, N-[(2-chlorophenyl)methyl]-5-methylthieno[2,3-d]pyrimidin-4-amine]
